Assay results published in patent US7018642B2 (The Procter & Gamble Company, priority 2001, dated 2006).
“And” between values parts separate entries of the source, which are not always exact repeats. Equal entries are not always repeated.

Assays:
[1] = test system: S. epidermidis; experiment: 3-piece growth-chamber array (3P-GCA) biofilm growth test on bathroom tile; assay type: cell-based, Staphylococcus epidermidis; settings: 72 hours; for optical density of extracted crystal violet (biofilm growth): S. epidermidis on standard white matte bathroom tile, two medium exchanges, replicate wells A, B, C, smaller = prevention, inoculated control 1.870-2.387; for biofilm prevention activity in 3P-GCA method (in words): S. epidermidis on white matte bathroom tile
Method: Wells in the block bottom are filled with 0.5–1 mL of the media described in Reference Example 1, and inoculated with 5–10 μL of overnight cultures of the bacterial strains described in Reference Example 1. The block bottom and top that contain a standard-size, white bathroom tile are then aligned and clamped together, and the assembly placed on a tissue culture rotator (VWR Scientific) set at a rotation speed of 1–3 rpm, or in a shaking incubator, at the appropriate temperature, for 24 hours. Optionally, the 1 mL liquid medium in each well is then replaced with fresh medium, and incubation continued for an additional 24 hours; this sequence of medium replacement and continued growth is done from 1–3 times, to generate biofilms of the desired thickness. After growth, the block bottom is removed, the liquid is removed and replaced with 200 μL of a 1% CV solution (in ˜10% ethanol). The block is then reassembled, re-positioned on the tissue culture rotator and incubated with the settings described above for 15–75 minutes to stain the biofilms. The block pieces are disassembled, and the top block that contains the tile surface is rinsed under a gentle stream of deionized water until all unbound dye is visibly removed. Optionally, any excessive dye adsorbed to the sides of the wells of the block bottom is removed using a test tube brush and a commonly available detergent formulation; this helps to reduce any background due to non-specific staining that can sometimes occur. As a faster alternative, the stained block bottom is simply interchanged with a new or pre-cleaned block bottom. Bound dye on the tile surface is then extracted by pipetting 0.5–1.0 mL of a solution of 1% sodium deoxycholate in 95% ethanol (and optionally 4–6 glass beads 1–3 mm in diameter to assist dye removal) into each well, reassembling the block top and bottom, and either repositioning on the tissue culture rotator followed by incubation using the settings described above for 0.5–2 hours, or alternatively, vortexing vigorously for 1–5 minutes. Subsequently, either undiluted or diluted (in ethanol) samples of extracted CV pipetted from the disassembled blocks are transferred to flat bottom, polystyrene microtiter plates and absorbances are measured in a microplate reader, and compared to controls, as described in Reference Example 1. […] Use of the 3P-GCA is the same as for the 2P-GCA described in Reference Example 5, except that when liquid growth media are being replaced in the wells of the block bottom, only one of the lid assemblies is removed. This arrangement has the advantage that if sensitive biofilms are being investigated, they are not disturbed at all during the entire method. If the biofilms being investigated are not sensitive to disturbance, then an additional advantage of the 3P-GCA is that it can be used to grow biofilms on both surfaces 30 of each lid assembly 90, especially if the 3P-GCA is mounted on a tissue culture rotator for biofilm growth, such that liquid growth media contacts both surfaces 30. […] Polypropylene block components are used. Data are reported as optical density measurements for 3 replicates of inoculated wells per compound tested, with 3 inoculated and three uninoculated control well replicates, corresponding to columns 1 (compound 32), 2 (compound 168), 3 (compound 226), 4 (inoculated control), and 5 (uninoculated control). Smaller numbers indicate prevention of biofilm growth.

[2] = test system: S. epidermidis strain ATCC 35984; experiment: Biofilm prevention screen (96-well microplate, crystal violet); assay type: cell-based; settings: Staphylococcus epidermidis, positive = prevention, negative = enhancement of biofilm formation, quadruplicate, read-out: average percentage reduction of biofilm formed relative to DMSO controls; for inhibition at 32 µM: ATCC35984, 32 μM; for inhibition at 160 µM: ATCC35984, 160 μM; for inhibition at 390 µM: ATCC35984, 390 μM
Outline: (§1)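 Three strains in 96-well round-bottom plates, compound at 250–500 μM, 160 μM or 32 μM, 16–26 h at 200 rpm (30° C Pseudomonas, 37° C staphylococcus). Staining: CV 45 min at room temperature, ethanol extraction, A586. Reported as % biofilm reduction vs DMSO, n = 4.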

[3] = test system: P. aeruginosa strain PAO1; experiment: as above; assay type: cell-based; settings: Pseudomonas aeruginosa, positive = prevention, negative = enhancement of biofilm formation, quadruplicate, read-out: average percentage reduction of biofilm formed relative to DMSO controls
Outline: as §1

SMILES | optical density of extracted crystal violet (biofilm growth) [1] | biofilm prevention activity in 3P-GCA method (in words) [1] | inhibition at 32 µM [2] [%] | inhibition at 160 µM [2] [%] | inhibition at 390 µM [2] [%] | inhibition at 32 µM [3] [%] | inhibition at 160 µM [3] [%] | inhibition at 390 µM [3] [%]
O=C(NCCCCCCCCCCCCNC(=O)[C@H]1CCCN1)[C@H]1CCCN1 [Compound 226, D-proline 1,12-diaminododecane bisamide] | 0.202 and 0.269 and 0.147 | strong biofilm prevention activity | 24 | 101 | 100 | -23 | 96 | 95
CCCCCCCCCCNC(=O)[C@@H]1CCCN1 [Compound 32, L-proline n-decyl amide] | 0.175 and 0.244 and 0.207 | strong biofilm prevention activity | -3 | 100 | 97 | -15 | -43 | 22
CCCCCCCCCCCCNC(=O)[C@@H]1CCCN1 [Compound 168] | 1.981 and 1.581 and 1.517 | much more modest effect | 101 | 100 | 98 | 3 | 53 | 91
